Reference: patent US20130337564A1, “Treatment of Pluripotent Cells” (Janssen Biotech, Inc., priority 2012, published 2013)

Assays:
[1] = system: human embryonic stem cells (H9 or H1 lines); assay: Plate reader (MTS) proliferation assay; assay type: cell-based; details: for activity at 10 µM: Homo sapiens, Embryonic stem cell, 96 h, 10 μM test compound with 100 ng/ml activin A on days 1-2, MTS OD490 on day 4, vs Activin A/Wnt3a positive control, strong and moderate hits; for Average: average of replicate raw data
Outline: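 H9 or H1 cells on Matrigel, washed, then given DMEM:F12 with 0.5% FCS, 100 ng/ml activin A and 10 μM compound (days 1–2), then 2% FCS plus activin A (days 3–4). MTS added day 4, OD490 read after 1.5–4 h at 37 °C; triplicates as percent of activin A/Wnt3a control.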

[2] = system: HNF-3beta expression in human embryonic stem cells (H9 line); assay: High content screening assay: HNF-3beta protein expression (differentiation); assay type: cell-based
Outline: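 H9 hESCs on MATRIGEL treated days 1-2 with 10 μM compound in DMEM:F12, 0.5% FCS, 100 ng/ml activin A; days 3-4 with 2% FCS plus activin A without compound. Fixed cells immunostained for Sox17 or HNF-3beta with Draq5 nuclear counterstain. Cell number and staining intensity quantified by high-content imaging, 12 fields/well.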

Cn1cc(C2=C(c3nn(CCCn4ccnc4)c4ccccc34)C(=O)NC2=O)c2cc(Cl)ccc21 [Compound 231, 3-(5-Chloro-1-methyl-1H-indol-3-yl)-4-{1-[3-(1H-imidazol-1-yl)propyl]-1H-indazol-3-yl}-1H-pyrrole-2,5-dione] was tested, and the activity at 10 µM [1] was 114%, the Average [1] was 1.6020 and the “HNF-3b Expression Total Intensity” value [2] was 547055000.

Cn1cc(C2=C(c3nn(CCCn4ccnn4)c4ccccc34)C(=O)NC2=O)c2cc(Cl)ccc21 [Compound 232, 3-(5-Chloro-1-methyl-1H-indol-3-yl)-4-{1-[3-(1H-1,2,3-triazol-1-yl)propyl]-1H-indazol-3-yl}-1H-pyrrole-2,5-dione] gave an activity at 10 µM [1] of 132%, an Average [1] of 1.8323 and a fold induction at 10 µM ([2]; Homo sapiens, Embryonic stem cell, 10 μM test compound with 100 ng/ml activin A on days 1-2, H9, total intensity by IN Cell Analyzer, strong and moderate hits, read-out: HNF3β Expression, Fold over Wnt 3a/AA control) of 0.771. For the same molecule, the “HNF-3b Expression Total Intensity” value [2] was 854325000.

O=C1NC(=O)C2=C1Nc1cccc(c1)OCCC/C=C\CCCOc1cccc2c1 [Compound 233, (11Z)-8,9,10,13,14,15-Hexahydro-2,6:17,21-di(metheno)pyrrolo[3,4-h][1,15,7]dioxazacyclotricosine-22,24(1H,23H)-dione] was tested, and the activity at 10 µM [1] was 93%, the Average [1] was 1.3325 and the “HNF-3b Expression Total Intensity” value [2] was 109160000.
